Laboratory results as given in patent US20240158446A1, “CYCLIC COMPOUND HAVING SELECTIVE INHIBITORY ACTION ON KRAS OVER HRAS AND NRAS” (CHUGAI SEIYAKU KABUSHIKI KAISHA, priority 2021, published 2024).
Read-outs that look alike come from different tables or passages of the source. *1 amine or outer side, *2 acyl side, *3 side chain or, on linkers, in order; H or OH if unused. Where a SMILES comes first, the peptide text is derived from it. Bridges are numbered along the chain shown (N, C = ends). [ ]: non-standard residue; d: D form. The star is where a group is joined. hPhe(3,5-F2-4-CF3) = N[C@@H](CCc1cc(F)c(C(F)(F)F)c(F)c1)C(=O)O; hPhe(3-Cl-4-CF3) = N[C@@H](CCc1ccc(C(F)(F)F)c(Cl)c1)C(=O)O; NPrPhe(4-CF3) = CCCN[C@@H](Cc1ccc(C(F)(F)F)cc1)C(=O)O; Morpholine(3S-CO) = O=C(O)[C@@H]1COCCN1; NMeGly(cPent) = CN[C@H](C(=O)O)C1CCCC1; Pro(4,4-Me2) = CC1(C)CN[C@H](C(=O)O)C1; Ac4c(3,3-F2) = NC1(C(=O)O)CC(F)(F)C1; X11 = CCC[C@](C)(N[*:1])C(=O)[*:2]; Hyp = O=C(O)[C@@H]1C[C@@H](O)CN1; NMeD = CN[C@@H](CC(=O)O)C(=O)O; NMeL = CN[C@@H](CC(C)C)C(=O)O; Morpholide = C1CN(*)CCO1; NMeA = CN[C@@H](C)C(=O)O; Ac5c = NC1(C(=O)O)CCCC1; Aze = O=C(O)[C@@H]1CCN1; Sar = CNCC(=O)O

Key:
[1] = target: GDP-bound KRAS wild-type protein (Homo sapiens, UniProt P01116); experiment: Binding to KRAS by surface plasmon resonance (SPR), Single Cycle Kinetics; settings: GDP-bound KRAS wild-type protein, read-out: KRAS KD
GDP-bound KRAS wild-type protein, sequence (P01116 whole entry): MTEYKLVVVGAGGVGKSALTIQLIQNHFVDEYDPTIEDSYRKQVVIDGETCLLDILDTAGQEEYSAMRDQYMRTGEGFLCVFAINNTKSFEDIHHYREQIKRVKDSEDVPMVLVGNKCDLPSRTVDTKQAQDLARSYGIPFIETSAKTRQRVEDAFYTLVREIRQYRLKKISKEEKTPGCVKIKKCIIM

[2] = target: GDP-bound NRAS wild-type protein (Homo sapiens, UniProt P01111); experiment: Binding to NRAS by surface plasmon resonance (SPR), Single Cycle Kinetics; settings: SPR, GDP-bound NRAS wild-type protein vs GDP-bound KRAS wild-type protein
GDP-bound NRAS wild-type protein, sequence (P01111 whole entry): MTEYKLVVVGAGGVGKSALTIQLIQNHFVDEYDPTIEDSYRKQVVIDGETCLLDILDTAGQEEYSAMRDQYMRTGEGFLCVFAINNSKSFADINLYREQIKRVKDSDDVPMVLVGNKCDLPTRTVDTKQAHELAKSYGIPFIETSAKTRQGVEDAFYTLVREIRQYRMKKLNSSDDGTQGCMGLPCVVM

[3] = target: GDP-bound HRAS wild-type protein (Homo sapiens, UniProt P01112); experiment: Binding to HRAS by surface plasmon resonance (SPR), Single Cycle Kinetics; settings: SPR, GDP-bound HRAS wild-type protein vs GDP-bound KRAS wild-type protein
GDP-bound HRAS wild-type protein, sequence (P01112 whole entry): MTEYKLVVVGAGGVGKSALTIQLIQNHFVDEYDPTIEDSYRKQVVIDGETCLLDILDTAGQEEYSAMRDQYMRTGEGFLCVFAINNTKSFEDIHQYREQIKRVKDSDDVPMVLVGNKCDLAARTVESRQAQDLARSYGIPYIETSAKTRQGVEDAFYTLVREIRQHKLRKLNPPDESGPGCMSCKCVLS

[4] = SPR Single Cycle Kinetics, 1:1 binding model

Kd ([1]; SPR, Single Cycle Kinetics) [nM]	Kd [1, 4] [nM]	SMILES	NRAS/KRAS (ratio of KD value for NRAS to KD value for KRAS) [2]	HRAS/KRAS (ratio of KD value for HRAS to KD value for KRAS) [3]	NRAS/KRAS (ratio of KD value with respect to NRAS to KD value with respect to KRAS) [2]	HRAS/KRAS (ratio of KD value with respect to HRAS to KD value with respect to KRAS) [3]	further results
0.0072	–	CCCN1C(=O)CN(C)C(=O)CN(C)C(=O)[C@H]([C@@H](C)CC)NC(=O)[C@@H]2CCCCCOc3ccc(cc3)C[C@H]1C(=O)N(C)CC(=O)N[C@@H](CCc1cc(F)c(C(F)(F)F)c(F)c1)C(=O)N1C[C@H](OCC)C[C@H]1C(=O)NC1(CCCC1)C(=O)N(C)[C@@H](C1CCCC1)C(=O)N(C)[C@H](C(=O)N(C)C)CC(=O)N2C [PP0895]	C (A compound having a KD ratio of 0.1 or more and less than 3 is denoted as C)	C (A compound having a KD ratio of 0.1 or more and less than 3 is denoted as C)	–	–	–
–	8.6	CCO[C@@H]1C[C@H]2C(=O)NC3(CCC3)C(=O)N(C)[C@@H](C3CCCC3)C(=O)N(CCC3CCCC3)[C@H](C(=O)N(C)C)CC(=O)N(C)[C@@H](CC)C(=O)N[C@@H]([C@@H](C)CC)C(=O)N(C)CC(=O)N(C)[C@H]3CCCCCN(C3=O)[C@@H](Cc3ccc(C(F)(F)F)cc3)C(=O)N(C)CC(=O)N[C@@H](CCc3cc(F)c(C(F)(F)F)c(F)c3)C(=O)N2C1 [PP0636]	–	–	A (a compound having 10 or more and less than 20 is denoted as A)	A (a compound having 10 or more and less than 20 is denoted as A)	–
–	0.096	CCCN1C(=O)CN(C)C(=O)CN(C)C(=O)[C@H]([C@@H](C)CC)NC(=O)[C@H](CC(C)C)N(C)C(=O)C[C@@H](C(=O)N2CCOCC2)N(C)C(=O)[C@H](C2CCCC2)N(C)C(=O)C2(CC(F)(F)C2)NC(=O)[C@@H]2CCCN2C(=O)[C@H](CCc2cc(F)c(C(F)(F)F)c(F)c2)NC(=O)CN(C)C(=O)[C@@H]1Cc1ccc(C(F)(F)F)cc1 [PP0766] ([NMeL]I[Sar][Sar][NPrPhe(4-CF3)][Sar][hPhe(3,5-F2-4-CF3)]P[Ac4c(3,3-F2)][NMeGly(cPent)][NMeD]-Morpholide; lactam N-11)	–	–	B (a compound having 3 or more and less than 10 is denoted as B)	B (a compound having 3 or more and less than 10 is denoted as B)	–
0.092	–	CCO[C@@H]1C[C@H]2C(=O)NC3(CC(C)(C)C3)C(=O)N(C)[C@@H](C(CC)CC)C(=O)N(C)[C@H](C(=O)N(C)C)CC(=O)N(C)[C@H]3CCCCCc4ccc(cc4)C[C@@H](C(=O)N(C)CC(=O)N[C@@H](CCc4ccc(C(F)(F)F)c(OC)c4)C(=O)N2C1)N1CC/C=C\C[C@@H](C1=O)N(C)C(=O)CN(C)C(=O)[C@H]([C@@H](C)CC)NC3=O [PP3035]	AA (a compound having 20 or more is denoted as AA)	A (a compound having 10 or more and less than 20 is denoted as A)	–	–	–
–	0.85	CCCN1C(=O)CN(C)C(=O)[C@@H]2CCN2C(=O)[C@H]([C@@H](C)CC)NC(=O)[C@H](CC(C)C)N(C)C(=O)C[C@@H](C(=O)N2CCOCC2)N(C)C(=O)[C@H](C2CCCC2)N(C)C(=O)C2(CC(F)(F)C2)NC(=O)[C@@H]2CCCN2C(=O)[C@H](CCc2cc(F)c(C(F)(F)F)c(F)c2)NC(=O)CN(C)C(=O)[C@@H]1Cc1ccc(C(F)(F)F)cc1 [PP0783] ([NMeL]I[Aze][Sar][NPrPhe(4-CF3)][Sar][hPhe(3,5-F2-4-CF3)]P[Ac4c(3,3-F2)][NMeGly(cPent)][NMeD]-Morpholide; lactam N-11)	–	–	B (a compound having 3 or more and less than 10 is denoted as B)	B (a compound having 3 or more and less than 10 is denoted as B)	–
1.1	–	CC[C@H](C)[C@@H]1NC(=O)[C@H](COC)N(C)C(=O)C[C@@H](C(=O)N2CCOCC2)N(C)C(=O)[C@H](C2CCCC2)N(C)C(=O)C2(CCC2)NC(=O)[C@@H]2C[C@@H](OCC(C)C)CN2C(=O)[C@H](CCc2cc(F)c(C(F)(F)F)c(F)c2)NC(=O)CN(C)C(=O)[C@H](Cc2ccc(C(F)(F)F)cc2)N2CCCCC[C@@H](C2=O)N(C)C(=O)CN(C)C1=O [PP0839]	B (a compound having 3 or more and less than 10 is denoted as B)	B (a compound having 3 or more and less than 10 is denoted as B)	–	–	–
–	0.073	CCCN1C(=O)[C@@H]2CCN2C(=O)[C@H](C)N(C)C(=O)[C@H]([C@@H](C)CC)NC(=O)[C@H](CC(C)C)N(C)C(=O)C[C@@H](C(=O)N2CCOCC2)N(C)C(=O)[C@H](C2CCCC2)N(C)C(=O)C2(CCCC2)NC(=O)[C@@H]2CC(C)(C)CN2C(=O)[C@H](CCc2ccc(C(F)(F)F)c(Cl)c2)NC(=O)CN(C)C(=O)[C@@H]1Cc1ccc(C(F)(F)F)cc1 [PP0454] ([NMeL]I[NMeA][Aze][NPrPhe(4-CF3)][Sar][hPhe(3-Cl-4-CF3)][Pro(4,4-Me2)][Ac5c][NMeGly(cPent)][NMeD]-Morpholide; lactam N-11)	–	–	C (A compound having a KD ratio of 0.1 or more and less than 3 is denoted as C)	C (A compound having a KD ratio of 0.1 or more and less than 3 is denoted as C)	–
–	0.52	CCCN1C(=O)[C@@H]2CCN2C(=O)[C@H](C)N(C)C(=O)[C@H]([C@@H](C)CC)NC(=O)[C@H](CC(C)C)N(C)C(=O)C[C@@H](C(=O)N2CCOCC2)N(C)C(=O)[C@H](C2CCCC2)N(C)C(=O)C2(CCCC2)NC(=O)[C@@H]2COCCN2C(=O)[C@H](CCc2ccc(C(F)(F)F)c(Cl)c2)NC(=O)CN(C)C(=O)[C@@H]1Cc1ccc(C(F)(F)F)cc1 [PP0286] ([NMeL]I[NMeA][Aze][NPrPhe(4-CF3)][Sar][hPhe(3-Cl-4-CF3)][Morpholine(3S-CO)][Ac5c][NMeGly(cPent)][NMeD]-Morpholide; lactam N-11)	C (A compound having a KD ratio of 0.1 or more and less than 3 is denoted as C)	B (a compound having 3 or more and less than 10 is denoted as B)	–	–	–
0.63	–	CCO[C@@H]1C[C@H]2C(=O)NC3(CC(C)(C)C3)C(=O)N(C)[C@@H](C(CC)CC)C(=O)N(C)[C@H](C(=O)N3CCCC3)CC(=O)N(C)[C@@H](C)C(=O)N[C@@H]([C@@H](C)CC)C(=O)N(C)CC(=O)N(C)[C@H]3C/C=C\CCN(C3=O)[C@@H](Cc3ccc(C)cc3)C(=O)N(C)CC(=O)N[C@@H](CCc3ccc(C(F)(F)F)c(OC)c3)C(=O)N2C1 [PP2169]	AA (a compound having 20 or more is denoted as AA)	A (a compound having 10 or more and less than 20 is denoted as A)	–	–	–
–	–	CCO[C@@H]1C[C@H]2C(=O)NC3(CCC3)C(=O)N(C)[C@@H](C3CCCC3)C(=O)N(C)[C@H](C(=O)N(C)CCOC)CC(=O)N(C)[C@@H](CC(C)C)C(=O)N[C@@H]([C@@H](C)CC)C(=O)N(C)CC(=O)N(C)[C@H]3C/C=C\CCN(C3=O)[C@@H](Cc3ccc(C(F)(F)F)cc3)C(=O)N(C)CC(=O)N[C@@H](CCc3ccc(C(F)(F)F)c(OC)c3)C(=O)N2C1 [PP1324, (2S,8S,12R,14S,20S,23S,27S,30S,36S,38Z)-20-cyclopentyl-12-ethoxy-27-isobutyl-N-(2-methoxyethyl)-8-[2-[3-methoxy-4-(trifluoromethyl)phenyl]ethyl]-N,4,19,22,26,32,35-heptamethyl-30-[(1S)-1-methylpropyl]-3,6,9,15,18,21,25,28,31,34,42-undecaoxo-2-[[4-(trifluoromethyl)phenyl]methyl]spiro[1,4,7,10,16,19,22,26,29,32,35-undecazatricyclo[34.5.1.0^10,14]dotetracont-38-ene-17,1′-cyclobutane]-23-carboxamide]	–	–	–	–	Kd ([1]; SPR, Single Cycle Kinetics, 1:1 binding model): 0.093 nM; NRAS/KRAS (ratio of KD value for NRAS to KD value for KRAS) ([2]; KD ratio class): A (a compound having 10 or more and less than 20 is denoted as A); HRAS/KRAS (ratio of KD value for HRAS to KD value for KRAS) ([3]; KD ratio class): A (a compound having 10 or more and less than 20 is denoted as A)
–	1.5	CCCN1C(=O)[C@@H]2CCN2C(=O)CN(C)C(=O)[C@H]([C@@H](C)CC)NC(=O)[C@H](CC(C)C)N(C)C(=O)C[C@@H](C(=O)N2CCOCC2)N(C)C(=O)[C@H](C2CCCC2)N(C)C(=O)[C@](C)(CCC)NC(=O)[C@@H]2CCCN2C(=O)[C@H](CCc2cc(F)c(C(F)(F)F)c(F)c2)NC(=O)CN(C)C(=O)[C@@H]1Cc1ccc(C(F)(F)F)cc1 [PP0794] ([NMeL]I[Sar][Aze][NPrPhe(4-CF3)][Sar][hPhe(3,5-F2-4-CF3)]P[X11][NMeGly(cPent)][NMeD]-Morpholide; lactam N-11)	–	–	C (A compound having a KD ratio of 0.1 or more and less than 3 is denoted as C)	B (a compound having 3 or more and less than 10 is denoted as B)	–
–	0.24	CCCN1C(=O)[C@@H]2CCN2C(=O)[C@H](C)N(C)C(=O)[C@H]([C@@H](C)CC)NC(=O)[C@H](CC(C)C)N(C)C(=O)C[C@@H](C(=O)N(C)C)NC(=O)[C@H](C2CCCC2)N(C)C(=O)C2(CCCC2)NC(=O)[C@@H]2C[C@@H](OCC)CN2C(=O)[C@H](CCc2ccc(C(F)(F)F)c(Cl)c2)NC(=O)CN(C)C(=O)[C@@H]1Cc1ccc(C(F)(F)F)cc1 [PP0383] ([NMeL]I[NMeA][Aze][NPrPhe(4-CF3)][Sar][hPhe(3-Cl-4-CF3)][Hyp](Et)[Ac5c][NMeGly(cPent)]D-NMe2; lactam N-11)	C (A compound having a KD ratio of 0.1 or more and less than 3 is denoted as C)	B (a compound having 3 or more and less than 10 is denoted as B)	–	–	–
